Experimental data from PMC9866218, “Characterization and Chemical Synthesis of Cm39 (α-KTx 4.8): A Scorpion Toxin That Inhibits Voltage-Gated K^+ Channel KV1.2 and Small- and Intermediate-Conductance Ca^2+-Activated K^+ Channels KCa2.2 and KCa3.1” (Toxins, 2023).

Biological target: T1, hKCa2.2 (Homo sapiens, UniProt Q9H2S1)
T1 construct: expressed in transfected cells; host or cells: CHO cells, transient transfection, co-transfected with a GFP plasmid
Test: Whole-cell patch-clamp, block of KCa2.2 current
Format: cell-based
Description: We, therefore, aimed at testing the pharmacological activity of sCm39 on a battery of various potassium and sodium ion channels. Among the tested channels were six members of human voltage-gated K^+ (hKV) channels from Shaker family, hKV1.1-hKV1.6 (Figure 3A–F) and three members of Ca^2+-activated potassium channel; hKCa2.2 (SK2, Figure 3I), the small-conductance Ca^2+-activated channel; hKCa3.1 (IKCa1, SK4. Figure 3J), the intermediate-conductance Ca^2+-activated channel expressed in T lymphocytes; and mKCa1.1 (BK, Slo1, MaxiK, Figure 3H), the large-conductance voltage- and Ca^2+-activated channel of mice. In addition, we also screened the effect of Cm39 on hKV11.1 (hERG1, Figure 3G), a voltage-gated cardiac K^+ channel, and two human voltage-gated sodium (hNaV) channels, hNaV1.4 (Figure 3K) and hNaV1.5 (Figure 3L), expressed in skeletal and cardiac muscles, respectively. These ion channels were heterologously expressed in the CHO or HEK cell lines except for KV1.3. Human peripheral T lymphocytes. They were stimulated with Phytohemagglutinin A (PHA) to increase the KV1.3 channel expression, and Ca^2+-free intracellular solution was used to avoid KCa3.1 channel activation. Appropriate depolarization protocols were used to record ionic currents in voltage-clamped cells (see Figure 3 insets and Material and Methods for details). Freshly dissolved sCm39 in extracellular solution was applied at 1 µM concentration on the cell using a custom-built micro-perfusion system at ~200 µL/min flow rate.
The whole-cell K^+ currents of CHO cells transiently expressing KCa2.2 or KCa3.1 channels were recorded sequentially by applying the 150 ms long voltage ramp to +50 mV from Vh of −120 mV every 10 s in the presence of control solution or upon perfusing the cell with different concentrations of sCm39. Normalized peak currents were calculated and plotted as function of time as shown in Figure 5A for KCa2.2 and in Figure 5C for KCa3.1 in the presence of the toxin at various concentrations and upon wash-out. […] RCF values were determined at equilibrium block in the presence of various concentrations of sCm39 and fitted with the Hill equation (see Materials and Methods for details).
Chinese hamster ovary (CHO) cells (gift from Yosef Yarden, Weizmann Institute of Science, Rehovot, Israel) were maintained by culturing in Dulbecco’s modified Eagle medium (DMEM, Gibco) supplemented with 2 mM L-glutamine, 10% FBS, 100 µg/mL streptomycin and 100 U/mL penicillin-g (Sigma-Aldrich) at a density of 0. 5−1×10^6 cells per mL in a humidified incubator at 37 °C and 5% CO2. Cells were passaged 3 times in a week following a 2–5 min incubation in 0.05% trypsin-EDTA solution at 37 °C. Cultures were used up to passage number 20. PCR-based tests were routinely used to detect mycoplasma infection, only mycoplasma-free cultures were used for experiments.
Those plasmids which lack a fluorescent tag were co-transfected with a plasmid encoding GFP. Transfections were performed at a GFP:channel DNA molar ratio of 1:10 using the Lipofectamine 2000 kit (Invitrogen) according to the manufacturer’s protocol. […] Generally, currents were recorded 24 to 48 h post transfection.
For the measurement of KV1.x, mKCa1.1 and NaV1.x currents the extracellular solution was composed of (in mM) 145 NaCl, 5 KCl, 2.5 CaCl2, 1 MgCl2, 10 HEPES and 5.5 glucose, pH 7.35.

T1 sequence (Q9H2S1 whole entry): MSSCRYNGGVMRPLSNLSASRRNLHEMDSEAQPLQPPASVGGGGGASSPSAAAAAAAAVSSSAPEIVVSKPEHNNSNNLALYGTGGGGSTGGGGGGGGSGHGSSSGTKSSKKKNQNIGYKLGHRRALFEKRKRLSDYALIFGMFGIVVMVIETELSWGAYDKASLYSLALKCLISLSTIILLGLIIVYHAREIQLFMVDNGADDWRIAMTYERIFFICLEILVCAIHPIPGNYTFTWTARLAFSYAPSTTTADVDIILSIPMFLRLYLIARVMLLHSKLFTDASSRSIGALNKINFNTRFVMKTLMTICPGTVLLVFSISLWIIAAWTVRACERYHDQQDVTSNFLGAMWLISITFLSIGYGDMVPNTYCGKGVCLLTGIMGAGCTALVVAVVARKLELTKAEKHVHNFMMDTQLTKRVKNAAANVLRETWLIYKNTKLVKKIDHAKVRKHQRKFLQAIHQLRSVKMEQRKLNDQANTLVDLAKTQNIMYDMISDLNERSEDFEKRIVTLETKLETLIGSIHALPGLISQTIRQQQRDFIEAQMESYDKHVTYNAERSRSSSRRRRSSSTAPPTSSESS

## CC[C@H](C)[C@@H]1NC(=O)[C@H](C)NC(=O)[C@H](C)NC(=O)[C@H](CCCCN)NC(=O)[C@@H]2CSSC[C@@H](C(=O)N[C@@H](Cc3ccc(O)cc3)C(=O)N[C@@H](Cc3ccc(O)cc3)C(=O)O)NC(=O)[C@H](CCCCN)NC(=O)[C@@H]3CSSC[C@H](NC(=O)[C@H](CCC(=O)O)NC(=O)[C@H](CO)NC(=O)[C@H](CO)NC(=O)[C@H](CO)NC(=O)[C@H](CCCCN)NC(=O)[C@@H](NC(=O)[C@H](CCCCN)NC(=O)[C@H](Cc4c[nH]cn4)NC(=O)[C@H](CC(N)=O)NC(=O)[C@@H](NC(=O)[C@H](Cc4ccccc4)NC(=O)[C@@H](N)[C@@H](C)O)[C@@H](C)CC)CSSC[C@H](NC(=O)[C@H](CCCCN)NC(=O)CNC(=O)[C@H](CO)NC(=O)[C@H](C)NC(=O)[C@H](CCCNC(=N)N)NC(=O)CNC1=O)C(=O)N[C@@H]([C@@H](C)CC)C(=O)N[C@@H](CC(N)=O)C(=O)N[C@@H](CO)C(=O)N[C@@H]([C@@H](C)O)C(=O)N3)C(=O)N[C@@H](CC(C)C)C(=O)N1CCC[C@H]1C(=O)N[C@@H](C)C(=O)N2 [Cm39]
1 µM, CHO cells, current at +48 mV, n = 3−5 (Figure 3M)
  reduction of current at equilibrium block: 55%
CHO cells
  toxin association and dissociation kinetics: fast
CHO cells, listed as sCm39
  toxin association and dissociation kinetics: very fast
concentration-response of KCa2.2 block, CHO cells
  Hill coefficient (H): 0.7
Pulses separated by 10 s
  development and almost full recovery from equilibrium block: 1–3 depolarization pulses
wash-out with toxin-free solution
  reversibility of KCa2.2 block: fully reversible
